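48-hour exposure; five concentrations; linearly interpolated endpoints. TGI: total growth inhibition.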
Key:
Assay in all cases: NCI-60 cell line screen, 48 h
[1] = system: 786-0 renal
[2] = system: A498 renal
[3] = system: A549 NSCLC
[4] = system: ACHN renal
[5] = system: CAKI-1 renal
[6] = system: CCRF-CEM leukemia
[7] = system: COLO 205 colon
[8] = system: DU-145 prostate
[9] = system: EKVX NSCLC
[10] = system: HCC-2998 colon
[11] = system: HCT-116 colon
[12] = system: HCT-15 colon
[13] = system: HL-60(TB) leukemia
[14] = system: HOP-62 NSCLC
[15] = system: HOP-92 NSCLC
[16] = system: HS 578T breast
[17] = system: HT29 colon
[18] = system: IGROV1 ovarian
[19] = system: K-562 leukemia
[20] = system: KM12 colon
[21] = system: M14 melanoma
[22] = system: MCF7 breast
[23] = system: MDA-MB-231 breast
[24] = system: MDA-MB-435
[25] = system: NCI-H226 lung
[26] = system: NCI-H23 lung
[27] = system: NCI-H522 lung
[28] = system: NCI/ADR-RES ovarian
[29] = system: OVCAR-3 ovarian
[30] = system: OVCAR-4 ovarian
[31] = system: OVCAR-5 ovarian
[32] = system: OVCAR-8 ovarian
[33] = system: PC-3 prostate
[34] = system: RPMI-8226 leukemia
[35] = system: RXF 393 renal
[36] = system: SF-268 CNS
[37] = system: SF-295 CNS
[38] = system: SF-539 CNS
[39] = system: SK-MEL-2 melanoma
[40] = system: SK-MEL-28 melanoma
[41] = system: SK-MEL-5 melanoma
[42] = system: SK-OV-3 ovarian
[43] = system: SN12C renal
[44] = system: SNB-19 CNS
[45] = system: SNB-75 CNS
[46] = system: SR leukemia
[47] = system: SW-620 colon
[48] = system: T-47D breast
[49] = system: TK-10 renal
[50] = system: U251 CNS
[51] = system: UACC-257 melanoma
[52] = system: UACC-62 melanoma
[53] = system: UO-31 renal
[54] = system: BT-549 breast
[55] = system: LOX IMVI melanoma
[56] = system: NCI-H460 lung
[57] = system: MALME-3M melanoma
[58] = system: MOLT-4 leukemia

Measured: TGI

O=C1CC(c2ccsc2)n2cccc21 (configuration not stated)
> 100 µM: [1] | [2] | [3] | [4] | [5] | [6] | [7] | [8] | [9] | [10] | [11] | [12] | [13] | [14] | [15] | [16] | [17] | [18] | [19] | [20] | [21] | [22] | [23] | [24] | [25] | [26] | [27] | [28] | [29] | [30] | [31] | [32] | [33] | [34] | [35] | [36] | [37] | [38] | [39] | [40] | [41] | [42] | [43] | [44] | [45] | [46] | [47] | [48] | [49] | [50] | [51] | [52] | [53]

CC(C)=Cc1cc(CCC/C(C)=C/Cc2c(O)cc(C)c(C(=O)O)c2O)co1
> 100 µM: [1] | [3] | [4] | [54] | [5] | [6] | [7] | [8] | [9] | [10] | [11] | [12] | [14] | [15] | [16] | [17] | [18] | [19] | [20] | [55] | [21] | [22] | [23] | [24] | [26] | [56] | [27] | [28] | [29] | [30] | [31] | [32] | [33] | [34] | [36] | [37] | [38] | [39] | [40] | [41] | [43] | [44] | [45] | [47] | [48] | [49] | [50] | [51] | [52] | [53]

Oc1ccc2ccccc2c1OCc1nnc(CCCCCCCCc2nnc(COc3c(O)ccc4ccccc34)n2Nc2ccccc2)n1Nc1ccccc1
> 100 µM: [2] | [3] | [4] | [19] | [22] | [58] | [56] | [30] | [33] | [34] | [36] | [37] | [42] | [43] | [44] | [45] | [47] | [48] | [49]
26 µM: [11]
> 76.6 µM: [39]
31.8 µM: [24]
56.9 µM: [28]
56.2 µM: [57]
26.6 µM: [27] | [52]
61.5 µM: [15]
> 76.8 µM: [9]
33 µM: [20]
> 82 µM: [53]
31 µM: [10]
> 95.9 µM: [31]
77.7 µM: [54] | [12]
> 81.8 µM: [18]
> 58.9 µM: [50]
44.7 µM: [21]
26.7 µM: [38]
> 87.7 µM: [40]
65.2 µM: [16]
36.3 µM: [17]
> 70.1 µM: [8]
> 78 µM: [35]
63.1 µM: [32]
41.9 µM: [14]
1.28 µM: [7]
58.7 µM: [1]
> 56.5 µM: [5]
61.1 µM: [23]
32.1 µM: [29]
> 75.2 µM: [26]
> 80 µM: [51]
> 91.1 µM: [25]
2.37 µM: [41]

— PubChem BioAssay (NCI)
